Assay results: PubChem BioAssay AID608 (Sanford-Burnham Center for Chemical Genomics, 2007)
The source made the active and inactive calls. How the calls were made is not given here.

The molecules below were run against Peptidyl-prolyl cis-trans isomerase FKBP1A (Homo sapiens) (UniProt P62942) (assay: FKBP12 binders, biophysical, NMR detection (AID 608)). Conditions: NMR binding, purified FKBP12.
Sequence of Peptidyl-prolyl cis-trans isomerase FKBP1A (Homo sapiens) (P62942 whole entry, looked up): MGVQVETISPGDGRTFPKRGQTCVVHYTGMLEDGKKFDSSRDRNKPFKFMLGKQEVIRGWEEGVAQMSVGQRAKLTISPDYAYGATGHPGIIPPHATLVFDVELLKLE
With `CC12CN3CC(C)(CN(C1)C3c1cccs1)C2O` (configuration not stated) the Kd was > 4 mM (inactive). `Cc1cc(C(=O)NN2CCOCC2)c(C)o1` was tested, and the Kd was > 4 mM (inactive). With `NCc1ccc(S(N)(=O)=O)cc1` the Kd was > 4 mM (inactive). `O=c1[nH]cc(NCc2ccco2)c(=O)[nH]1` was tested, and the Kd was > 4 mM (inactive). With `Cc1cc(NC(=O)c2cnn3cccnc23)no1` the Kd was > 4 mM (inactive). With `CC(=O)O[C@H]1C[C@@H](OC(C)=O)C(C)(C)C2CC(=O)[C@]3(C)C(CC[C@@]4(C)[C@H](C(=O)O)OC(=O)C5OC543)[C@]21C` (some centres not stated) the Kd was > 4 mM (inactive). `O=C(NS(=O)(=O)c1ccccc1)c1ccccc1F` was tested, and the Kd was > 4 mM (inactive). In the case of `O=C1CSC(=O)N1c1cccc(O)c1`, the Kd is reported as > 4 mM (inactive). For `CCCCCC1C(=O)CCC1CC(=O)O` (configuration not stated), the Kd was > 4 mM (inactive). In the case of `Cc1cc(NS(=O)(=O)Cc2ccccc2)no1`, the Kd is reported as > 4 mM (inactive). For `Cc1ccc(C)c(S(=O)(=O)NCc2cccnc2)c1`, the Kd was > 4 mM (inactive). In the case of `COc1cc2c(c(OC)c1OC)-c1ccc(O)c(=O)cc1[C@@H](NC(C)=O)CC2`, the Kd is reported as > 4 mM (inactive). In the case of `CCNC(=S)N1CCCC(C(N)=O)C1` (configuration not stated), the Kd is reported as > 4 mM (inactive). `O=C1CSC(=Nc2ccc(Cl)cc2)N1` was tested, and the Kd was > 4 mM (inactive). For `O=C(NC1=NCCS1)c1ccc(Cl)s1`, the Kd was > 4 mM (inactive). In the case of `COC(=O)CC1NC2CCCCC2NC1=O` (configuration not stated), the Kd is reported as > 4 mM (inactive). With `OCc1ccc2c(c1)OCO2` the Kd was > 4 mM (inactive). `O=C(O)CC1C(=O)NCCN1Cc1ccccc1` (configuration not stated) was tested, and the Kd was > 4 mM (inactive). `c1ccc(-c2nc3ccccc3nc2-c2ccccn2)nc1` was tested, and the Kd was > 4 mM (inactive). For `Cc1sc2nc(NCCO)[nH]c(=O)c2c1C`, the Kd was > 4 mM (inactive). With `COc1ccc(-c2ccc(SCC(N)=O)nn2)cc1` the Kd was > 4 mM (inactive). In the case of `CC(=O)NC(NC(C)=O)c1ccccc1`, the Kd is reported as > 4 mM (inactive). `Cc1cc(C)cc(NS(=O)(=O)N2CCCCC2)c1` was tested, and the Kd was “inactive”. For `CS(=O)(=O)c1ccc2nc(N)sc2c1`, the Kd was > 4 mM (inactive). For `COc1ccc(-c2nc(C)sc2CC(=O)O)cc1`, the Kd was > 4 mM (inactive). In the case of `CNC(=O)c1cc2cccc(OC)c2oc1=O`, the Kd is reported as > 4 mM (inactive). In the case of `Cc1nnsc1C(=O)N(C)c1ccccc1`, the Kd is reported as > 4 mM (inactive). In the case of `Cn1c(=O)[nH]c(=O)c2nsnc21`, the Kd is reported as > 4 mM (inactive). For `COc1ccc(-c2coc3cc(OC)cc(OC)c3c2=O)cc1`, the Kd was > 4 mM (inactive). For `CN1C2C[C@H](OC(=O)[C@H](CO)c3ccccc3)C[C@H]1[C@@H](O)C2`, the Kd was > 4 mM (inactive). In the case of `O=c1c(-c2ccco2)[n+]([O-])c2ccccc2n1O`, the Kd is reported as > 4 mM (inactive). `OCc1ccncc1` was tested, and the Kd was > 4 mM (inactive). `C(=C\c1ccccc1)/C=N/n1cnnc1` was tested, and the Kd was > 4 mM (inactive). For `O=C(c1cccnc1Cl)N1CCOCC1`, the Kd was > 4 mM (inactive). `Cc1nccn1CCC(=O)O` was tested, and the Kd was > 4 mM (inactive). With `O=C(O)C1(S(=O)(=O)c2ccccc2)CC1` the Kd was > 4 mM (inactive). `O=S(=O)(c1cccc2cccnc12)N1CCOCC1` was tested, and the Kd was > 4 mM (inactive). `Cc1cc(NC(=O)c2ccc3c(c2)OCCO3)no1` was tested, and the Kd was > 4 mM (inactive). `COc1ccc(-c2coc3cc(O)ccc3c2=O)cc1` was tested, and the Kd was > 4 mM (inactive). `O=S1(=O)CCC(NC(=S)Nc2ccccc2)C1` (configuration not stated) was tested, and the Kd was > 4 mM (inactive). `Cn1nnc2cc(CN)ccc21` was tested, and the Kd was > 4 mM (inactive). `COC(=O)C1=CCCN(C)C1` was tested, and the Kd was > 4 mM (inactive). `O=C(Nn1cnnc1)c1ccccc1-c1ccccc1` was tested, and the Kd was > 4 mM (inactive). In the case of `O=C1CNCc2[nH]c3ccccc3c2N1c1ccccc1`, the Kd is reported as > 4 mM (inactive). `C[C@@H]1O[C@@H](O[C@H]2CC[C@]3(C=O)C4CC[C@]5(C)[C@@H](C6=CC(=O)OC6)CC[C@]5(O)C4CC[C@]3(O)C2)[C@H](O)[C@H](O)[C@H]1O` (some centres not stated) was tested, and the Kd was > 4 mM (inactive). With `Nc1ccccc1OC(F)(F)F` the Kd was > 4 mM (inactive). For `OCc1snnc1-c1ccccc1`, the Kd was > 4 mM (inactive). For `CCOC(=O)c1ccc(Oc2ccc(C)nn2)cc1`, the Kd was > 4 mM (inactive). In the case of `Cn1c(=O)c2[nH]c(Nc3ccccc3)nc2n(C)c1=O`, the Kd is reported as > 4 mM (inactive). `NC(N)=NOCC[C@H](N)C(=O)O` was tested, and the Kd was > 4 mM (inactive). For `Cc1cc(=O)cc(C)n1-c1ccccc1N`, the Kd was > 4 mM (inactive). For `O=C(Nc1ccon1)c1csc2c1CCCC2`, the Kd was > 4 mM (inactive). For `COc1cccc(/C=N/N=C2/NC(=O)CS2)c1`, the Kd was > 4 mM (inactive). In the case of `Cc1nc(-c2cccc(C(=O)O)c2)cs1`, the Kd is reported as > 4 mM (inactive). In the case of `NC(N)=NCCCCN=C(N)N`, the Kd is reported as > 4 mM (inactive). For `Cc1nc(-c2ccccc2)sc1CO`, the Kd was > 4 mM (inactive). With `NC(Cn1ccc(=O)c(O)c1)C(=O)O` (configuration not stated) the Kd was > 4 mM (inactive). For `CN(C)C(=O)Nc1ccc2c(c1)nnn2C`, the Kd was > 4 mM (inactive). For `Cc1ccc(NC(=O)C2CCCNC2=O)nc1` (configuration not stated), the Kd was > 4 mM (inactive). In the case of `COc1ccc(NC(=O)C(N)=O)cc1Cl`, the Kd is reported as > 4 mM (inactive). For `C(=N\c1ncn[nH]1)/c1cccs1`, the Kd was > 4 mM (inactive). For `COc1cc(C(=O)NCC2CCCO2)cc(OC)c1OC` (configuration not stated), the Kd was > 4 mM (inactive). In the case of `COc1ccc2c(c1OC)C(=O)O[C@H]2[C@H]1c2cc3c(cc2CCN1C)OCO3`, the Kd is reported as > 4 mM (inactive). In the case of `COC(=O)Cn1c2ccccc2c2nc(C)sc21`, the Kd is reported as > 4 mM (inactive). For `COc1ccc2cnn(-c3ccccc3)c(=O)c2c1OC`, the Kd was > 4 mM (inactive). With `CC(=O)c1sc2nc(N)nn2c1C` the Kd was > 4 mM (inactive). In the case of `COc1cccc(S(=O)(=O)Nc2cccnc2)c1`, the Kd is reported as > 4 mM (inactive). With `COc1cccc(NC(=O)c2ocnc2C)c1` the Kd was > 4 mM (inactive). `CN(C)C(=S)Nc1nc2ccccc2s1` showed a Kd of 0.152 mM. For `Oc1ccc(/C=C/c2cc(O)cc(O)c2)cc1`, the Kd was > 4 mM (inactive). In the case of `Cc1cc(N)no1`, the Kd is reported as > 4 mM (inactive). For `Cc1onc(-c2ccccc2)c1CN`, the Kd was > 4 mM (inactive). In the case of `CC(=O)NC(=S)Nc1ccc(N(C)C(C)=O)cc1`, the Kd is reported as > 4 mM (inactive). `NNc1ncnc2sccc12` was tested, and the Kd was > 4 mM (inactive). With `Cc1n[nH]c(C)c1CN` the Kd was > 4 mM (inactive). `O=C(Nc1nnc(-c2ccncc2)o1)c1cccs1` was tested, and the Kd was > 4 mM (inactive). With `S=C(NC1=NCCS1)Nc1ccccc1` the Kd was > 4 mM (inactive). In the case of `Cc1nnc(C)n1/N=C/c1cccs1`, the Kd is reported as > 4 mM (inactive). In the case of `O=C1CC(=O)N(c2cccc(Cl)c2)N1`, the Kd is reported as > 4 mM (inactive). For `COc1cc(OC)c(-c2c(OC)cc(OC)cc2OC)c(OC)c1`, the Kd was > 4 mM (inactive). `CC1(C)CCC(C)(C)c2cc(C(=O)O)ccc21` was tested, and the Kd was > 4 mM (inactive). For `Cc1cccc(C)c1NC(=O)CN1CCOCC1`, the Kd was > 4 mM (inactive). For `COc1cc2cc3c4cc(OC)c(OC)cc4cc[n+]3c(C)c2cc1OC`, the Kd was > 4 mM (inactive). With `CS(C)=C1C(=O)NC(=O)N(Cc2ccc(F)cc2)C1=O` the Kd was > 4 mM (inactive). `O=[N+]([O-])c1cccc(-c2nnco2)c1` was tested, and the Kd was > 4 mM (inactive). For `O=C1NC(=S)NC(=O)C1=Cc1ccncc1`, the Kd was > 4 mM (inactive). `O=C(Nc1cccc2ncccc12)c1cccnc1` was tested, and the Kd was > 4 mM (inactive). With `O=C(O)CCC1=C2c3ccccc3CCN2C(=O)CC1` the Kd was > 4 mM (inactive). With `NC(CSCSCC(N)C(=O)O)C(=O)O` (configuration not stated) the Kd was > 4 mM (inactive). With `COc1cc2nc(-c3cccs3)oc(=O)c2cc1OC` the Kd was > 4 mM (inactive). In the case of `O=C(O)CN1C(=O)c2cccc([N+](=O)[O-])c2C1=O`, the Kd is reported as > 4 mM (inactive). For `CCCCN1C(=O)N(C)C2NC(=O)NC21` (configuration not stated), the Kd was > 4 mM (inactive). `Cc1ccc(Nc2nnns2)cc1C` was tested, and the Kd was > 4 mM (inactive). `Cc1nn(C)c(C)c1C(=O)O` was tested, and the Kd was > 4 mM (inactive). With `O=C1CCC(=O)N1c1nc2ccccc2s1` the Kd was > 4 mM (inactive). `O=C(Oc1ccc(-c2nnco2)cc1)N1CCOCC1` was tested, and the Kd was > 4 mM (inactive). For `CCOC(=O)c1snnc1-c1ccccc1`, the Kd was > 4 mM (inactive). With `COC(=O)c1ccc(N2CCOCC2)nc1` the Kd was > 4 mM (inactive). For `NS(=O)(=O)c1ccc(NC(=O)C(F)(F)F)cc1`, the Kd was > 4 mM (inactive). In the case of `CNc1nc(N)c(C(=O)C(C)(C)C)s1`, the Kd is reported as > 4 mM (inactive). For `O=c1c2ccccc2ncn1C1CCCCC1`, the Kd was > 4 mM (inactive). With `CC(O)c1ccc(C(C)O)cc1` (configuration not stated) the Kd was > 4 mM (inactive). With `CC(=O)c1cccc(NS(=O)(=O)N2CCOCC2)c1` the Kd was “inactive”. With `CN=C1SC(CC(=O)Nc2ccc(O)cc2)C(=O)N1C` (configuration not stated) the Kd was > 4 mM (inactive). For `CC(CCC(=O)O)[C@H]1CCC2C3C(C[C@H](O)[C@@]21C)[C@@]1(C)CC[C@@H](O)C[C@H]1C[C@H]3O` (some centres not stated), the Kd was > 4 mM (inactive). With `CC1=C(/C=C/C(C)=C/C=C/C(C)=C/C=C/C=C(C)/C=C/C=C(C)/C=C/C(=O)[C@]2(C)C[C@@H](O)CC2(C)C)C(C)(C)C[C@H](O)C1` the Kd was > 4 mM (inactive). `CCn1c(-c2ccccc2)n[nH]c1=S` was tested, and the Kd was > 4 mM (inactive). `CNS(=O)(=O)c1ccc2[nH]c(=O)[nH]c2c1` was tested, and the Kd was > 4 mM (inactive). In the case of `CCOC(=O)C1CN(C)CCN1C` (configuration not stated), the Kd is reported as > 4 mM (inactive). With `c1ccc(CCc2nc(-c3ccccn3)no2)cc1` the Kd was > 4 mM (inactive). With `O=C(CSc1nnc2ccccn12)N1CCOCC1` the Kd was 0.221 mM. `COc1ccc(-c2coc3cc(OC(C)=O)cc(OC(C)=O)c3c2=O)cc1` was tested, and the Kd was > 4 mM (inactive). For `C[C@@H]1[C@H]2[C@H](O[C@@H]3O[C@H](CO)[C@@H](O)[C@H](O)[C@H]3O)OC=C(C(=O)O)[C@H]2C[C@@H]1O`, the Kd was > 4 mM (inactive). With `O=C(c1cccs1)N1CCCc2ccccc21` the Kd was > 4 mM (inactive). With `Cc1n[nH]c(=S)n(/N=C/c2cccs2)c1=O` the Kd was > 4 mM (inactive). In the case of `Cc1oc(-c2ccccc2)nc1CCO`, the Kd is reported as > 4 mM (inactive). With `CC1(C)C[C@@H]2C(=O)CC[C@H]3O[C@]3(C)CC[C@H]21` the Kd was > 4 mM (inactive). In the case of `CCN1CCN(CCCNc2ncnc3nc[nH]c23)CC1`, the Kd is reported as > 4 mM (inactive). With `O=C(CSc1ncn[nH]1)c1ccc2c(c1)OCCO2` the Kd was > 4 mM (inactive). For `COc1ccc(N2C(=N)C(C)(C)NC2=O)cc1`, the Kd was > 4 mM (inactive). In the case of `O=C(O)CSCC(=O)Nc1cccc(O)c1`, the Kd is reported as > 4 mM (inactive). With `COCCn1c(SC)nc2c1c(=O)[nH]c(=O)n2C` the Kd was > 4 mM (inactive).
